Test results: patent publication US20110110916A1, “METHODS FOR TREATING AND/OR PREVENTING CARDIOMYOPATHIES BY ERK OR JNK INHIBITION” (priority 2008, published 2011)

Key:
Format in all cases: in vivo, mouse
[1] = test system: hearts from Lmna^H222P/H222P mice; assay: Histopathological analysis of hearts (left ventricle, cardiomyocyte nuclear length); conditions: for mean lengths of nuclei in cardiomyocytes compared to the DMSO-treated group: 20 weeks of age, treated 16 to 20 weeks
Method: Mice were sacrificed at 16 weeks of age and freshly removed hearts were fixed in 4% formaldehyde for 48 hours, embedded in paraffin, sectioned at […] and stained with hematoxylin and eosin and Masson's trichrome. Representative stained sections were photographed using a Microphot SA (Nikon) light microscope attached to a Spot RT Slide camera (Diagnostic Instruments). Images were processed using Adobe Photoshop 6.0 (Adobe Systems). Length of cardiomyocytes was measured using Scion Image software (Scion Corporation). Data were reported as means±standard deviations and are compared with respective controls using a two-tailed t test.
Mice were sacrificed at 20 weeks of age, and freshly removed hearts were fixed in 4% formaldehyde for 48 hours, embedded in paraffin, sectioned at 5 μm and stained with hematoxylin, eosin and Gomori's trichrome and Syrius Red. Representative stained sections were photographed using a Microphot SA (Nikon) light microscope attached to a Spot RT Slide camera (Diagnostic Instruments) with a 10× objective. Images were processed using Adobe Photoshop CS (Adobe Systems).

[2] = test system: Lmna^H222P/H222P mice; assay: Deaths during the 4-week treatment protocol; conditions: 4-week treatment from 16 weeks; PD98059 n=22, SP600125 n=29; DMSO 6 of n=28
Excerpt: We assigned male Lmna^H222P/H222P mice 16 weeks of age to 3 different treatment arms (placebo DMSO, n=28; MEK1/2 inhibitor PD98059, n=22; JNK inhibitor SP600125, n=29) and examined parameters of cardiac structure and function at 20 weeks of age, after 4 weeks treatment. […] Lmna^H222P/H222P mice also have depressed cardiac contractility, with fractional shortening (FS) decreased by 20%-40% compared to Lmna^+/+ mice (13,15). Myocardial fibrosis occurs in Lmna^H222P/H222P mice at 16 weeks of age (16). At 20 weeks, LVEDD and LVESD increase further in Lmna^H222P/H222P mice and cardiac contractility also progressively deteriorates (16). During the 4-week treatment protocol, 6 mice in the DMSO group, 3 in the PD98059 group and 3 in the SP600125 group died prior to reaching 20 weeks of age for evaluation.

[3] = test system: Lmna^H222P/H222P mice; assay: Pilot study: echocardiography at 24 weeks of age, treatment from 19 to 24 weeks; conditions: 3 mg/kg/day from 19 to 24 weeks, pilot study n=3
Method: SP600125, an anthrapyrazolone inhibitor of JNK, and PD98059, a 2′-amino-3′-methoxyflavone MAPK/ERK kinase (MEK) ½ inhibitor, (Calbiochem) were dissolved in dimethyl sulfoxide (DMSO) (Sigma) at a concentration of 1 mg/ml and were delivered to a dose of 3 mg/kg/day for 5 days a week. The placebo control consisted of DMSO alone and was delivered in the same volume. Placebo and inhibitors were administered by intraperitoneal injection using a 27⅝-gauge syringe. Treatments were started when mice were 16 weeks of age and continued until 20 weeks of age or when the mice were 19 weeks and continued until 24 weeks of age.
At 20 weeks or 24 weeks of age, mice were anesthetized with 1.5% isoflurane in O2 and placed on a heating pad (37° C.). Cardiac function was assessed by echocardiography with a Visualsonics Vevo 770 ultrasound with a 30 MHz transducer applied to the chest wall. Cardiac ventricular dimensions and fractional shortening (FS) were measured in 2D mode and M-mode three times in a modified short axis view for the number of animals indicated. A “blinded” echocardiographer (J.S.), unaware of the genotype or treatment, performed the examinations.
In a pilot study, we assessed treatment of Lmna^H222P/H222P mice with PD98059 and SP600125 at a more advanced stage of disease and for a longer time. […]

[4] = test system: Lmna^H222P/H222P mice; conditions: for development of LV dilatation: echocardiography (PD98059 also histopathology); for EF / FS / IVSD / LVEDD / LVESD / LVPW: Lmna^H222P/H222P mice at 16 weeks of age, i.p. 5 days a week from 8 to 16 weeks (PD98059, SP600125 3 mg/kg/day), means ± standard deviations
Method: PD98059 (Calbiochem) and SP600125 (Calbiochem) were dissolved in Dimethyl Sulfoxide (DMSO, Sigma) at a concentration of 0.5 mg/ml and were delivered to a dose of 3 mg/kg/day for 5 days a week. […] The placebo control consisted of DMSO alone. Placebo and inhibitors were administered by intraperitoneal injection using a 27G^5/8 syringe. Treatment was started when mice were 8 weeks of age and continued until 16 weeks of age.
Lmna H222P knock-in mice were generated and genotyped as described (14). […] Lmna^H222P/H222P mice were separated by sex and were given either vehicle alone (DMSO), the MEK inhibitor PD98059 alone, the JNK inhibitor SP600125 alone, both PD98059 and SP600125 together, the MEK inhibitor U0126 alone, or the MEK inhibitor MEK1/2 alone. All the mice were fed on a chow diet and housed in a barrier facility. The Institutional Animal Care and Use Committee at Columbia University Medical Center approved the use of animals in the study protocol.
Cardiac function was assessed by echocardiography with a Visualsonics Vevo 770 ultrasound with a 30-MHz transducer applied to the chest wall. Cardiac ventricular dimensions and ejection fraction were measured in 2D-mode and M-mode three times for the number of animals indicated. A “blinded” echocardiographer, unaware of the genotype or treatment, performed the examinations.
We administered PD98059, at a dose of 3 mg/kg/day or 6 mg/kg/day, or placebo (dimethylsulfoxide; DMSO) by intraperitoneal injection 5 days a week to male homozygous Lmna mutant mice (Lmna^H222P/H222P). […] PD98059 mediates its inhibitory properties by binding to MEK, therefore preventing phosphorylation of ERK1/2.
Treatment was initiated at 8 weeks of age and continued until the mice were 16 weeks of age. At 16 weeks of age, the mice were analyzed by echocardiography and then sacrificed for histological and biochemical studies. Untreated male Lmna^+/+ and Lmna^H222P/H222P mice were similarly analyzed for comparisons.

[5] = 16 weeks of age, treated 8 to 16 weeks

| Structure (SMILES) | abnormal elongation of cardiomyocyte nuclei ([1]; 16 week-old mice, treated 8 to 16 weeks) | mean lengths of nuclei in cardiomyocytes compared to the DMSO-treated group [1] | mice that died prior to reaching 20 weeks of age [2] | LV dilatation and FS compared to DMSO-treated mice [3] | cardiac contractility (ejection fraction and LV fractional shortening) ([4]; 16 weeks of age, treated 8 to 16 weeks, compared with Lmna^+/+ mice) | development of LV dilatation [4, 5] | EF [4] [%] | FS [4] [%] | IVSD [4] [mm] | LVEDD [4] [mm] | LVESD [4] [mm] | LVPW [4] [mm] |
| --- | --- | --- | --- | --- | --- | --- | --- | --- | --- | --- | --- | --- |
| COc1cccc(-c2cc(=O)c3ccccc3o2)c1N [PD98059, 2-(2-amino-3-methoxyphenyl)-4H-1-benzopyran-4-one] | prevented | significantly shorter | 3 | decreased LV dilatation and increased FS | normal cardiac contractility | prevented development of LV dilatation | 73.52 ± 4.68 | 41.55 ± 4.29 | 0.69 ± 0.06 | 3.12 ± 0.20 | 1.82 ± 0.16 | 0.77 ± 0.10 |
| O=C1c2ccccc2-c2n[nH]c3cccc1c23 [SP600125, anthra[1,9-cd]pyrazol-6(2H)-one] | – | significantly shorter | 3 | trend toward decreased LV dilatation and increased FS | – | prevented development of LV dilatation | 69.24 ± 9.59 | 38.70 ± 7.38 | 0.72 ± 0.07 | 3.46 ± 0.27 | 2.30 ± 0.45 | 0.73 ± 0.08 |
